According to patent US20170065327A1, “METHODS AND MATERIALS FOR TREATING ELEVATED SYMPATHETIC NERVE ACTIVITY CONDITIONS” (Mayo Foundation for Medical Education and Research, priority 2014, published 2017):

Key:
healthy humans = experiment: Brief escalating infusion of trimethaphan camsylate with non-invasive beat-to-beat arterial pressure measurement to distinguish high and low sympathetic activity individuals; type: in vivo, human; conditions: infusion 1-4 mg/minute for 5-10 minutes, 24 healthy humans
Text: (§1) FIG. 1 is a graph plotting muscle sympathetic nerve activity (MSNA; bursts/min) as measured using a microneurography technique for 24 humans. The dose indicates the amount of trimethaphan in mg/min it took to abolish the sympathetic nerve bursts. The MSNA bursts per minute is the amount of sympathetic bursts that occurred at baseline, prior to drug infusion.
(§2) FIG. 2 is a graph plotting the same dose of trimethaphan in mg/min compared to the difference in mean arterial pressure (MAP) between baseline and at the final trimethaphan dose.
Both normal human subjects and patients with diseases such as resistant hypertension can have very wide ranges of baseline sympathetic activity. The following was developed to distinguish those individuals with high levels of baseline sympathetic activity from individuals with lower levels of baseline sympathetic activity. Trimethaphan camsylate, a ganglionic blocking drug, was administered (e.g., by infusion) at 1-4 mg/minute for 5-10 minutes to 24 healthy humans, while non-invasive beat-to-beat measurements of arterial pressure were made. […] The relationship between the fall in blood pressure and baseline sympathetic activity in a group of about 20-30 healthy women ranging in age from their early 20's to their later 60's was determined (FIGS. 1 and 2). Similar data were obtained using healthy men. […]

[1] = test system: young and older postmenopausal women; experiment: Autonomic (ganglionic) blockade with trimethaphan camsylate in young and older postmenopausal women: muscle sympathetic nerve activity, arterial pressure, total peripheral resistance; type: in vivo, human; conditions: during trimethaphan
Text: as §1, §2
The effect of ganglionic blockade on arterial blood pressure and how this relates to baseline muscle sympathetic nerve activity in 12 young (25±1 years) and 12 older postmenopausal (61±2 years) women were examined. The women were studied before and during autonomic blockade using trimethaphan camsylate. At baseline, muscle sympathetic nerve activity burst frequency and burst incidence were higher in the older women (33±3 versus 15±1 bursts/min; 57±5 versus 25±2 bursts/100 heartbeats, respectively; P<0.05). Muscle sympathetic nerve activity bursts were abolished by trimethaphan within minutes (e.g., between about 6 and about 35 minutes). […] Baseline muscle sympathetic nerve activity was associated with the decrease in mean arterial pressure during trimethaphan (r=−0.74; P<0.05). See, also, Barnes et al., Hypertension, 63:303-308 (2014).

[2] = older postmenopausal women (61±2 years, n=12), P<0.01 versus young

Question: `O=C1N(Cc2ccccc2)C2C[S+]3CCCC3C2N1Cc1ccccc1` (stereo not drawn) [trimethaphan, trimethaphan camsylate] was tested. Which “fall in blood pressure during brief escalating doses” value (healthy humans) did it give?
Answer: directly related to baseline sympathetic activity

Question: And the “Muscle sympathetic nerve activity bursts” value ([1]; 12 young and 12 older postmenopausal women)?
Answer: abolished

Question: And the “decrease in mean arterial pressure” value [1, 2]?
Answer: −29±2 mm Hg

Question: What about the “decrease in total peripheral resistance” value [1, 2] of the same compound?
Answer: −10±1 mm Hg/L per minute

Question: And the “decrease in mean arterial pressure” value ([1]; young women (25±1 years, n=12))?
Answer: −9±2 mm Hg

Question: What about the “decrease in total peripheral resistance” value ([1]; young women (25±1 years, n=12)) of the same compound?
Answer: −5±1 mm Hg/L per minute
